# Laboratory results taken from patent US9623002B2, “Pharmaceutical compositions of Anisomelic acid and the use thereof” (priority 2012, dated 2017).
# Entries after “also recorded” stand apart in the source; their conditions may differ.
# Key:
# SiHa cells [1] = assay: Mitochondrial depolarization by TMRM labeling; assay type: cell-based; conditions: 20-40 μM AA, 8-48 h
# Procedure: Tetramethylrhodamine, methyl ester (TMRM, Invitrogen, Cergy Pontoise, France) was stored as 20 mM dimethylsulfoxide stock and diluted in medium before use. The cells were incubated in 20 nM tetramethylrhodamine for 10 min in 37° C. water bath. The cells were placed on ice and analyzed immediately by FACSCalibur flow cytometry.
# c33a cells [2] = assay: His-tag E6 plasmid transfection of c33a cells, Western blot and FACS; assay type: cell-based; conditions: 70 μM AA
# Procedure: c33a cells were pelleted and resuspended in OPTIMEM (Gibco, Invitrogen Foundation, Washington D.C., USA) and electroporated with mock or His-tag E6 plasmid at 220 V and 975 μF. Twenty four hours post-transfection, the culture medium was changed and the cells were treated with AA or left untreated, after which the cells were cultured for another 24 h or 48 h for further analysis adopting Western blotting and cell death assay by FACS.
# SiHa cells [3] = assay: Propidium iodide detection of permeabilized (necrotic) cells; assay type: cell-based; conditions: AA doses greater than 40 μM
# Procedure: For detection of permeabilized (necrotic) cells, the cells were trypsinized and resuspended in 50 μg/ml Propidium Iodide (PI) (Sigma-Aldrich) in PBS for 10 minutes at room temperature. The samples were analyzed by flow cytometry.
# c33a cells [4] = assay: Apoptosis analysis in c33a cells; assay type: cell-based; conditions: HPV negative c33a cells (p53−), 40 μM AA, 48 h
# Procedure: (§1) SiHa cells were treated with 0-50 μM AA or solvent control at 10 μM interval. […] Fourty eight hours later, the cells were collected and analyzed for apoptosis and/or necrosis. Activated caspase-3 in cells was labeled with phyco-erythrin-conjugated antibody according to manufacturer's protocol (PE Active Caspase-3 Apoptosis Kit; BD Pharmingen, San Diego, Calif.) and analyzed by FACSCalibur flow cytometer (FL-2, FSC, BD Pharmingen).
# (§2) HeLa, Caski, c33a, MCF7, MDA-MB-231 and MEF cells were treated with 0 and 40 μM AA. Forty eight hours later, the cells were collected and analyzed for apoptosis.
# MCF7 cells = assay: Apoptosis analysis in MCF7 cells; assay type: cell-based; conditions: breast cancer MCF7 cells (p53+), 40 μM AA, 48 h
# Procedure: as §1, §2
# [5] = system: caspase-9, caspase-8, caspase-3 and PARP; assay: Western blotting for cleavage of caspases and PARP; assay type: cell-based; conditions: SiHa lysates
# Procedure: Whole cell lysates were prepared by lysing the cells in Laemmli sample buffer (Laemmli, 1970) and boiling the samples for 10 min after which proteins were separated in 12.5-15% SDS-PAGE. Western blotting was performed using antibodies against poly (ADP-ribose) polymerase (clone C-2-10; Sigma-Aldrich), Bid, Bax, caspase 8, caspase 9, caspase 3, SAPK/JNK, Phospho SAPK/JNK (Thr183/Tyr185), cIAP2 (Enzo Lifesciences), Akt, Phospho Akt(Ser473) (Cell Signalling Technology, Davers, Mass., USA), p21, Bcl-xL (Santa Cruz Biotechnology, Inc, Santa Cruz, Calif.), β-actin (clone AC-40; Sigma-Aldrich) and p53 (clone DO-1; BD Pharmingen). Horseradish peroxidase-conjugated secondary antibodies were obtained from Southern Biotechnology Associates (Birmingham, Ala.), Promega (Madison, Wis.) and Amersham Biosciences (Freiburg, Germany). The results were visualized using the ECL method (Amersham Biosciences) on X-ray film. The presented Western blot results are representative of at least three independent experiments.
# HeLa cells = assay: Apoptosis analysis in HeLa cells; assay type: cell-based; conditions: HPV positive HeLa cells (p53+), 40 μM AA, 48 h
# Procedure: as §1, §2
# [6] = system: Mouse Embryonic Fibroblasts (MEF); assay: Cell death analysis in MEF cells; assay type: cell-based; conditions: non-cancerous MEF cells, 40 μM AA
# Procedure: as §1, §2
# [7] = system: SiHa cells with p53 down-regulated by p53-shRNA; assay: RNA interference: p53-shRNA SiHa cells treated with AA; assay type: cell-based
# Procedure: (§3) Cells were synchronized by serum-starvation (1% serum) for 48 h and then cultured in medium containing 10% FCS for 24 h. After this, the cells were incubated with 0, 20 and 40 μM AA for 24. These doses were chosen since apoptosis induction was highest at 40 μM (the dose was limited to 40 μM in the following studies). The cells were collected and disrupted and the nuclei labelled for DNA content with PI by re-suspension in sodium citrate buffer [40 mM Na-citrate, 0.3% Triton X-100, 50 μg/ml PI (Sigma-Aldrich)]. After incubation at room temperature for 10 min, the samples were immediately analyzed by FACSCalibur flow cytometry.
# The pSUPER vector (SEQ ID NO: 1) (Oligoengine, Seattle, Wash., USA) for expression of human p53 targeted shRNA (5′[…] AGUCUU3′, Brummelkamp et al., 2002) was kindly provided by Dr. Pia Roos-Mattjus. The scramble (Scr) pSUPER vector (SEQ ID NO: 2) (5′GCG CGC TTT GTA GGA TTC G3′, Ostling et al., 2007) was transfected to control cells. Trypsinized SiHa cells were transfected with the shRNA expression plasmids by electroporation in Opti-MEM media (Gibco, Calif., USA). Twenty four hours post-transfection, the culture medium was changed and the cells were treated with AA or left untreated, after which the cells were cultured for another 24 h or 48 h. The efficiency of the shRNA expression vector was determined by Western blotting for p53 expression.
# Whole cell lysates were prepared by lysing the cells in Laemmli sample buffer (Laemmli, 1970) and boiling the samples for 10 min after which proteins were separated in 12.5-15% SDS-PAGE. Western blotting was performed using antibodies against poly (ADP-ribose) polymerase (clone C-2-10; Sigma-Aldrich), Bid, Bax, caspase 8, caspase 9, caspase 3, SAPK/JNK, Phospho SAPK/JNK (Thr183/Tyr185), cIAP2 (Enzo Lifesciences), Akt, Phospho Akt(Ser473) (Cell Signalling Technology, Davers, Mass., USA), p21, Bcl-xL (Santa Cruz Biotechnology, Inc, Santa Cruz, Calif.), β-actin (clone AC-40; Sigma-Aldrich) and p53 (clone DO-1; BD Pharmingen). […]
# Solubility = assay type: physicochemical
# Caski cells = assay: Apoptosis analysis in Caski cells; assay type: cell-based; conditions: HPV positive Caski cells (p53+), 40 μM AA, 48 h
# Procedure: as §1, §2
# SiHa cells [8] = assay: Cell cycle analysis of synchronized cells (PI, flow cytometry); assay type: cell-based; conditions: 24 h
# Procedure: as §3
# MDA-MB-231 cells = assay: Apoptosis analysis in MDA-MB-231 cells; assay type: cell-based; conditions: breast cancer MDA-MB-231 cells (p53−), 40 μM AA, 48 h
# Procedure: as §1, §2
# SiHa cells [9] = assay: MTT cytotoxicity assay; assay type: cell-based; conditions: 50 μM AA, preliminary studies, unpublished data
# SiHa cells [10] = assay: PE active caspase-3 apoptosis assay by FACS; assay type: cell-based
# Procedure: as §1, with “Pharmingen). SiHa cells were also tested with 40 μM AA and AA emulsion for 24 and 48 h. The cells were collected and analyzed for apoptosis adopting PE active caspase-3 assay by FACS.” for “Pharmingen).”
compound,measurement,setting,value
"C=C1C(=O)O[C@H]2/C=C(\C)CC/C=C(\C(=O)O)CC/C=C(\C)CC[C@H]12 [AA, Anisomelic acid]",mitochondrial membrane depolarization,SiHa cells [1],occured in a time-dependent manner
same,AA-induced apoptosis after E6 transfection,c33a cells [2]; c33a cells transfected with His-tag E6 vs mock,rescued c33a cells from apoptsis significantly
same,apoptosis induction,c33a cells [2]; c33a cells,undergo apoptosis
same,cell permeabilization by PI labeling (necrotic cell death),SiHa cells [3],could not detect increased cell permeabilization
same,apoptosis induction,c33a cells [4],significantly less; also recorded: do not undergo apoptosis
same,apoptosis induction,MCF7 cells,failed to induce effective apoptosis
same,cleavage of caspase-3 and PARP,[5]; 20-40 μM AA,induced the cleavage of caspase-3 and poly-ADP-ribose polymerase (PARP)
same,cleavage of procaspase-9 into 35/37 kDa fragments,[5]; 20 and 40 μM AA,seen after 12 h incubation
same,cleavage of procaspase-8,[5]; AA treatment,observed abundantly only after 24 h
same,apoptosis induction,HeLa cells,effectively induced apoptosis
same,cell death,[6],failed to induce cell death
same,"percentage of AA-induced apoptosis (caspase-3 activation, flow cytometry)","[7]; SiHa cells in the absence of p53 expression, 40 μM AA",did not observe any significant decrease
same,induction of p53 and p21 proteins by AA,"[7]; p53-shRNA SiHa cells, 40 μM & 20 μM AA respectively",abrogated
same,AA-induced cell cycle arrest,"[7]; p53-shRNA SiHa cells, 24 h after start of AA treatment",no longer accumulated at the G2/M phase
same,solubility in DMSO and hot ethanol,Solubility,dissolves
same,solubility in water or other aqueous solvents,Solubility,mostly insoluble
same,apoptosis induction,Caski cells,effectively induced apoptosis
same,cell cycle distribution,SiHa cells [8]; 20 and 40 μM AA,accumulated at the G2/M phase
same,dose at which G2/M arrest occurred more effectively,SiHa cells [8],20 µM
same,apoptosis induction,MDA-MB-231 cells,failed to induce effective apoptosis
same,killing,SiHa cells [9],≥ 95%
same,time at which maximum percentage of apoptosis was achieved,SiHa cells [10]; SiHa cells,48 h
same,cells that contained activated caspase-3 as a measure of apoptosis,"SiHa cells [10]; SiHa, 40 μM AA, 48 h",marked activation of caspase-3
same,caspase-3 cleavage,"SiHa cells [10]; SiHa, AA doses greater than 40 μM",reduced caspase-3 cleavage dramatically
Z-VAD.fmk [reference compound],effect on AA-induced caspase-3 activation,"SiHa cells [10]; SiHa, pre-incubation with 40 μM Z-VAD.fmk prior to 40 μM AA, data not shown",reversed caspase-3 activation and apoptotic cell morphology
